Drawing on patent US6232503A, “Alkynyl aryl sulfones” (Lonza Inc., priority 1999, dated 2001), this text covers MIC for 16 compounds.

Holding throughout (format): cell-based
The test system of assay [1] is Staphylococcus aureus. Kind of assay: Zone of inhibition assay, 24 hour minimum inhibitory concentration, Staphylococcus aureus. To be noted: Day-Engley neutralizing media. As for the experimental part: (§1) The minimum inhibitory concentrations of ethynyl 4-methylbenzene sulfone, available from Aldrich Chemical Co., and the sulfones prepared in Examples 1-15 were determined against the bacteria Burkholderia cepacia and Staphylococcus aureus by the zone of inhibition assay method common in the art. Burkholderia cepacia and Staphylococcus aureus was contacted with each sulfone for 24 hours in a Day-Engley neutralizing media (Difco Manual, 10th Ed., p. 261-263 (1984). The results are shown in Table 1.

For assay [2], the system named is Burkholderia cepacia. Description: Zone of inhibition assay, 24 hour minimum inhibitory concentration, Burkholderia cepacia. The following applies: Day-Engley neutralizing media. How it is done: as §1
In assay [3] the test system is Aspergillus niger. Kind of assay: Zone of inhibition assay, 5 day minimum inhibitory concentration, Aspergillus niger. The following applies: ATCC16404, 120 h; Aspergillus niger ATCC #16404; 5 days; Day-Engley neutralizing media. How it is done:
The minimum inhibitory concentrations of ethynyl 4-methylbenzene sulfone and the sulfones prepared in Examples 1-15 were determined against the fungi Aspergillus niger by the zone of inhibition assay method common in the art. A. niger ATCC #16404 was contacted with each sulfone for 5 days in a Day-Engley neutralizing media.

For orientation: MIC means the smallest concentration in the dilution series that meets the test's criterion for growth inhibition. Lower therefore signals inhibition by little substance.

Values after ≈ are worked out from the molar mass of the structure shown. Some results are limits rather than exact numbers.

Regarding `C#CS(=O)(=O)c1ccc(OC)cc1` [Ethynyl 4-Methoxybenzene Sulfone, ethynyl 4-methoxybenzene sulfone], the MIC in assay [1] fell in the range of 1 to 3 µg/mL (≈ 5.1 to 15.3 µM); in assay [2], 30 to 100 µg/mL (≈ 153 to 510 µM); in assay [3] it was 1000 to 3000 µg/mL (≈ 5100 to 15300 µM).
The like results for `O=S(=O)(C#CI)c1ccccc1` [Iodoethynyl Benzene Sulfone, Iodoethynyl benzene sulfone] were, in that order, 0.3 to 1 µg/mL (≈ 1.03 to 3.42 µM), 3 to 10 µg/mL (≈ 10.3 to 34.2 µM) and 300 to 1000 µg/mL (≈ 1030 to 3420 µM).
On the same counts, the results for `C#CS(=O)(=O)c1ccc(C(C)(C)C)cc1` [Ethynyl 4-t-Butylbenzene Sulfone, Ethynyl 4-t-butylbenzene sulfone] are 30 to 100 µg/mL (≈ 135 to 450 µM), > 1000 µg/mL and > 10000 µg/mL.
On the same counts, the results for `C#CS(=O)(=O)c1ccccc1` [Ethynyl Benzene Sulfone, Ethynyl benzene sulfone] are 1 to 3 µg/mL (≈ 6.02 to 18.1 µM), 10 to 30 µg/mL (≈ 60.2 to 181 µM) and 1000 to 3000 µg/mL (≈ 6020 to 18100 µM).
For `C#CS(=O)(=O)c1ccc(C)cc1` [Ethynyl 4-Methylbenzene Sulfone, ethynyl 4-methylbenzene sulfone, reference compound], the MIC was 3 to 10 µg/mL (≈ 16.6 to 55.5 µM) in assay [1], 100 to 300 µg/mL (≈ 555 to 1660 µM) in assay [2] and 3000 to 10000 µg/mL (≈ 16600 to 55500 µM) in assay [3].
The like results for `Cc1ccc(S(=O)(=O)C#CI)cc1` [Iodoethynyl 4-Methylbenzene Sulfone, Iodoethynyl 4-methylbenzene sulfone] were, in that order, 0.3 to 1 µg/mL (≈ 0.98 to 3.27 µM), 0.3 to 1 µg/mL (≈ 0.98 to 3.27 µM) and 100 to 300 µg/mL (≈ 327 to 980 µM).
Regarding `O=S(=O)(C#CI)c1ccc(OC(F)(F)F)cc1` [Iodoethynyl 4-trifluoromethoxybenzene sulfone], the results for the MIC in assay [1], in assay [2] and in assay [3] were 0.3 to 1 µg/mL (≈ 0.798 to 2.66 µM), 100 to 300 µg/mL (≈ 266 to 798 µM) and 30 to 100 µg/mL (≈ 79.8 to 266 µM), respectively.
On the same counts, the results for `C#CS(=O)(=O)c1c(C)cc(C)cc1C` [Ethynyl 2,4,6-Trimethylbenzene Sulfone, Ethynyl 2,4,6-trimethylbenzene sulfone] are 300 to 1000 µg/mL (≈ 1440 to 4800 µM), 300 to 1000 µg/mL (≈ 1440 to 4800 µM) and 3000 to 10000 µg/mL (≈ 14400 to 48000 µM).
The like results for `Cc1cc(C)c(S(=O)(=O)C#CI)c(C)c1` [Iodoethynyl 2,4,6-trimethylbenzene sulfone] were, in that order, 100 to 300 µg/mL (≈ 299 to 898 µM), 300 to 1000 µg/mL (≈ 898 to 2990 µM) and 100 to 300 µg/mL (≈ 299 to 898 µM).
The like results for `C#CS(=O)(=O)c1ccc(OC)c(OC)c1` [Ethynyl 3,4-Dimethoxybenzene Sulfone, Ethynyl 3,4-dimethoxybenzene sulfone] were, in that order, 10 to 30 µg/mL (≈ 44.2 to 133 µM), > 1000 µg/mL and > 10000 µg/mL.
As to `COc1ccc(S(=O)(=O)C#CI)cc1` [Iodoethynyl 4-Methoxybenzene Sulfone, iodoethynyl 4-methoxybenzene sulfone], the MIC fell in the range of 3 to 10 µg/mL (≈ 9.31 to 31 µM) in assay [1], 30 to 100 µg/mL (≈ 93.1 to 310 µM) in assay [2] and 30 to 100 µg/mL (≈ 93.1 to 310 µM) in assay [3].
Consider `C#CS(=O)(=O)c1ccc(CC)cc1` [Ethynyl 4-Ethylbenzene Sulfone], for which the MIC in assay [1] fell in the range of 3 to 10 µg/mL (≈ 15.4 to 51.5 µM); in assay [2] it was 300 to 1000 µg/mL (≈ 1540 to 5150 µM); in assay [3], 3000 to 10000 µg/mL (≈ 15400 to 51500 µM).
For the compound `CC(C)(C)c1ccc(S(=O)(=O)C#CI)cc1` [Iodoethynyl 4-t-Butylbenzene Sulfone, Iodoethynyl 4-t-butylbenzene sulfone], the MIC in assay [1] fell in the range of 1 to 3 µg/mL (≈ 2.87 to 8.62 µM); in assay [2], 300 to 1000 µg/mL (≈ 862 to 2870 µM); in assay [3], 100 to 300 µg/mL (≈ 287 to 862 µM).
Consider `CCc1ccc(S(=O)(=O)C#CI)cc1` [Iodoethynyl 4-Ethylbenzene Sulfone, Iodoethynyl 4-ethylbenzene sulfone], for which the MIC in assay [1] lay within 0.3 to 1 µg/mL (≈ 0.937 to 3.12 µM); in assay [2] it was 100 to 300 µg/mL (≈ 312 to 937 µM); in assay [3] it was 10 to 30 µg/mL (≈ 31.2 to 93.7 µM).
For `COc1ccc(S(=O)(=O)C#CI)cc1OC` [Iodoethynyl 3,4-Dimethoxybenzene Sulfone, Iodoethynyl 3,4-dimethoxybenzene sulfone], the values for the MIC in assay [1], in assay [2] and in assay [3] were 30 to 100 µg/mL (≈ 85.2 to 284 µM), 300 to 1000 µg/mL (≈ 852 to 2840 µM) and 300 to 1000 µg/mL (≈ 852 to 2840 µM), respectively.
`C#CS(=O)(=O)c1ccc(OC(F)(F)F)cc1` [Ethynyl 4-trifluoromethoxybenzene sulfone]: the MIC is 3 to 10 µg/mL (≈ 12 to 40 µM) in assay [1], > 1000 µg/mL in assay [2] and > 10000 µg/mL in assay [3].
